Assay results as given in patent US20150011528A1, “PHENYLIMIDE-CONTAINING BENZOTHIAZOLE DERIVATIVE OF ITS SALT AND PHARMACEUTICAL COMPOSITION COMPRISING THE SAME” (YUHAN CORPORATION, priority 2011, published 2015).

How the values were obtained:
Type in all cases: cell-based
[1] = target: T1, binding between KRS and AIMP3 (Homo sapiens, UniProt Q15046); assay: Yeast Two Hybrid specificity test, LexA-KRS / B42-AIMP3 co-transformed yeast cells; details: 1 μL of 20 mM DMSO solution per 200 μL culture; 30° C., 6 days; absorbance 540 nm; non-treated control = 100%
T1 construct: expressed in transfected cells; host or cells: yeast cells (co-transformed)
Protocol: (§1) And also, specificity of the inhibitory activity was evaluated, using the yeast cells cotransformed with the LexA-KRS vector and the B42-AIMP2 vector; and the yeast cells co-transformed with the LexA-KRS vector and the B42-AIMP3 vector, which were respectively prepared according to WO2011/056021. The co-transformation was carried out using the Yeastmaker yeast transformation system2 kit (Clontech), according to the manufacturer's instruction. […] The cultured yeast cells were diluted with the said galactose medium, until the absorbance at 540 nm attains to about 0.15 to 0.2. The diluted culture (200 μL), containing the yeast cells, was added to each well of a 96-well plate. Each test compound was dissolved in dimethyl sulfoxide at a concentration of 20 mM and then the resulting solutions (1 μL) were added to each well. The plate was cultured at 30° C. for 6 days and then the absorbance of each well was measured at 540 nm. The respective yeast cell proliferation rates (%) in the treated samples were calculated in comparison with those of the non-treated control (100%) and the results thereof are shown in Table 1 below.

[2] = test system: A549 cells; assay: Cell Migration Assay (transwell, laminin); details: Homo sapiens, laminin 10 μg/mL in lower well, test compounds 0.39˜100 μM, 6 hours at 37° C.
Method in brief: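 A549 cells in serum-free RPMI1640 migrated 6 h at 37 °C through 8.0 μm-pore polycarbonate membranes toward laminin (10 μg/mL), compound (0.39–100 μM) in both chambers. Migrated cells hematoxylin-stained, counted at three fields (×20); IC50 by non-linear regression.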

[3] = Cytotoxicity Study (WST); details: human; A549 cells, serum-free RPMI1640, test compounds 0.39˜100 μM, 5 hours + 2 hours WST, absorbance 450 nm
Protocol: A549 cells (Korean Cell Line Bank) was added to a 96-well plate in a concentration of 2×10^4 cells per well and then a RPMI1640 medium supplemented with 10% fetal bovine serum was added to each well. After culturing 24 hours, the medium was changed with a serum-free RPMI1640 medium and then test compounds (0.39˜100 μM) were treated. After culturing at 37° C. for 5 hours in a CO2 incubator, 10 μL of a WST reagent (Roche) was added to each well, which was then cultured for additional 2 hours. A microplate reader was used to measure the absorbance at 450 nm. From the absorbance values, each IC50 value was calculated by non-linear regression curve fit using the ‘GraphPad Prism” program.
The cytotoxicity study was performed, using the reduction of WST by the NADH produced by the electron transport system of mitochondria. […] Therefore, the compounds of the present invention have therapeutic activity against a disease associated with cancer cell metastasis through (i) selective inhibition against the binding between KRS and LR and (ii) inhibition of cell migration, rather than non-specific cytotoxicity.

[4] = target: T2, binding between KRS and AIMP2 (Homo sapiens, UniProt Q15046); assay: Yeast Two Hybrid specificity test, LexA-KRS / B42-AIMP2 co-transformed yeast cells; details: 1 μL of 20 mM DMSO solution per 200 μL culture; 30° C., 6 days; absorbance 540 nm; non-treated control = 100%
T2 construct: expressed in transfected cells; host or cells: yeast cells (co-transformed)
Protocol: as §1

[5] = target: T3, interaction between the KRS protein and the laminin receptor (LR) (Homo sapiens, UniProt Q15046); assay: Yeast Two Hybrid inhibition of the interaction between the KRS protein and the laminin receptor (LR); details: 1 μL of 20 mM DMSO solution per 200 μL culture; 30° C., 6 days; absorbance 540 nm; non-treated control = 100%
T3 construct: expressed in transfected cells; host or cells: yeast EGY/SH cells
Protocol: The inhibitory activity against the interaction between the KRS protein and the laminin receptor (LR) was evaluated according to the Yeast Two Hybrid method described in WO2011/056021. According to the disclosures of WO2011/056021, we prepared a vector obtained by cloning the KRS gene in the LexA vector (Clontech) and a vector obtained by cloning the LR gene in the B42 vector (Clontech). The yeast cells, i.e., EGY/SH cells were co-transformed with the LexA-KRS vector and the B42-LR vector. The co-transformation was carried out using the Yeastmaker yeast transformation system2 kit (Clontech), according to the manufacturer's instruction. […] The cultured yeast cells were diluted with the said galactose medium, until the absorbance at 540 nm attains to about 0.15 to 0.2. The diluted culture (200 μL), containing the yeast cells, was added to each well of a 96-well plate. Each test compound was dissolved in dimethyl sulfoxide at a concentration of 20 mM and then the resulting solutions (1 μL) were added to each well. The plate was cultured at 30° C. for 6 days and then the absorbance of the each well was measured at 540 nm.
as §1
When KRS is bound to LR, the trans-activation domain is come close to the DNA-binding domain and the genes for synthesizing essential amino acids are expressed, which leads to normal growth of the transformed yeasts, thereby increasing the absorbance.

T3 sequence (Q15046 whole entry): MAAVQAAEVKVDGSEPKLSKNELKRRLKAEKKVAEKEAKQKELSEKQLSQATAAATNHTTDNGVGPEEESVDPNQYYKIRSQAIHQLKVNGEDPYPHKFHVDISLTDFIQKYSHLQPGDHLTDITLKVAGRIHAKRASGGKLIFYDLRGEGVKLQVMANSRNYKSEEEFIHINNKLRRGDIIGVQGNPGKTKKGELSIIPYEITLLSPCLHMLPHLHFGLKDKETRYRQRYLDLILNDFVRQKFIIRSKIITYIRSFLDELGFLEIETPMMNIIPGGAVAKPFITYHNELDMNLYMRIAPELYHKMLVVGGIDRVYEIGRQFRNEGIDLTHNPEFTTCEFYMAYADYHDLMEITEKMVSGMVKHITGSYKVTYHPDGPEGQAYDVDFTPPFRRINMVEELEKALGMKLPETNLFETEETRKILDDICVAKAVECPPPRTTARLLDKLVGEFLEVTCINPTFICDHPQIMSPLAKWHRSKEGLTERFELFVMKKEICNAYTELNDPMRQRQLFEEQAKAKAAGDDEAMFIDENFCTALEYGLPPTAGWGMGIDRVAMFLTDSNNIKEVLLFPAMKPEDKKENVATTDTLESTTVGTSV
T2 sequence (Q15046 whole entry): as above
T1 sequence (Q15046 whole entry): as above

SMILES | Yeast cell proliferation rates KRS-AIMP3 (%) [1] [%] | IC50 [2] [µM] | IC50 at 5 h [3] [µM] | Yeast cell proliferation rates KRS-AIMP2 (%) [4] [%] | Yeast cell proliferation rates KRS-LR (%) [5] [%]
CCOc1ccc2c(c1)sc(=NC(=O)c1cccc(Cl)c1)n2C(CC)C(=O)O (stereo not drawn) [Example 56, 2-{2-[(3-chlorobenzoyl)imino]-6-ethoxybenzo[d]thiazol-3(2H)-yl}butanoic acid] | 104.7 | 2.7 | 95.5 | 103.3 | 31.2
CCC(C(=O)O)n1c(=NC(=O)c2cc(F)cc(F)c2)sc2ccccc21 (stereo not drawn) [Example 78, 2-[2-(3,5-difluorobenzoylimino)benzo[d]thiazol-3(2H)-yl]butanoic acid] | – | 15.9 | 636 | – | –
CCC(C(=O)O)n1c(=NC(=O)c2ccc([N+](=O)[O-])cc2)sc2ccccc21 (stereo not drawn) [Example 81, 2-[2-(4-nitrobenzoylimino)benzo[d]thiazol-3(2H)-yl]butanoic acid] | – | – | 828 | – | –
Cc1ccc(C(=O)N=c2sc3c(C(F)(F)F)cccc3n2C(C)C(=O)O)cc1 (stereo not drawn) [Example 98, 2-[2-(4-methylbenzoylimino)-7-(trifluoromethyl)benzo[d]thiazol-3(2H)-yl]propionic acid] | – | 5.2 | 74.9 | – | –
O=C(O)Cn1c(=NC(=O)c2cccc(C(F)(F)F)c2)sc2ccccc21 [Example 125, 2-[2-(3-(trifluoromethyl)benzoylimino)benzo[d]thiazol-3(2H)-yl]acetic acid] | – | 8.4 | 7490 | – | –
CCC(C(=O)O)n1c(=NC(=O)c2ccccc2)sc2ccccc21 (stereo not drawn) [Example 136, 2-[2-(benzoylimino)benzo[d]thiazol-3(2H)-yl]butanoic acid] | – | – | 281 | – | –
CCC(C(=O)O)n1c(=NC(=O)c2cccc(Cl)c2)sc2cc(OC(F)(F)F)ccc21 (stereo not drawn) [Example 176, 2-(2-((3-chlorobenzoyl)imino)-6-(trifluoromethoxy)benzo[d]thiazol-3(2H)-yl)butanoic acid] | – | 5.8 | 247 | – | –
Cc1ccc(C(=O)N=c2sc3cc(C(F)(F)F)ccc3n2CC(=O)O)cc1 [Example 246, 2-(2-((4-methylbenzoyl)imino)-6-(trifluoromethyl)benzo[d]thiazol-3(2H)-yl)acetic acid] | – | 12 | 245 | – | –
COc1cccc2sc(=NC(=O)c3cccc(C(F)(F)F)c3)n(C(C)C(=O)O)c12 (stereo not drawn) [Example 283, 2-(4-methoxy-2-(3-(trifluoromethyl)benzoylimino)benzo[d]thiazol-3(2H)-yl)propionic acid] | – | 10 | 108 | – | –
CC(C(=O)O)n1c(=NC(=O)c2cccc(Cl)c2)sc2cc(F)c(F)cc21 (stereo not drawn) [Example 289, 2-(2-((3-chlorobenzoyl)imino)-5,6-difluorobenzo[d]thiazol-3(2H)-yl)propionic acid] | – | 9.8 | 877 | – | –
CCC(C(=O)O)n1c(=NC(=O)c2cccc(Cl)c2)sc2cc(F)c(F)cc21 (stereo not drawn) [Example 290, 2-(2-((3-chlorobenzoyl)imino)-5,6-difluorobenzo[d]thiazol-3(2H)-yl)butanoic acid] | 99.0 | 3.2 | 172 | 87.0 | 35.1
CCC(C(=O)O)n1c(=NC(=O)c2cccc(C(F)(F)F)c2)sc2cc(F)c(F)cc21 (stereo not drawn) [Example 293, 2-(5,6-difluoro-2-((3-(trifluoromethyl)benzoyl)imino)benzo[d]thiazol-3(2H)-yl)butanoic acid] | – | 1 | 144 | – | –
CCC(C(=O)O)n1c2c(sc1=NC(=O)c1cccc(Cl)c1)CCCC2 (stereo not drawn) [Example 299, 2-(2-(3-chlorobenzoylimino)-4,5,6,7-tetrahydrobenzo[d]thiazol-3(2H)-yl)butanoic acid] | 90.4 | 7.9 | 344 | 92.0 | 13.8
CC(C(=O)O)n1c(=NC(=O)c2cccc(C(F)(F)F)c2)sc2c(Cl)cccc21 (stereo not drawn) [Example 308, 2-(7-chloro-2-((3-(trifluoromethyl)benzoyl)imino)benzo[d]thiazol-3(2H)-yl)propionic acid] | – | 6.6 | 267 | – | –
CC(C(=O)O)n1c(=NC(=O)c2cccc(Cl)c2)sc2c(Cl)cccc21 (stereo not drawn) [Example 309, 2-(7-chloro-2-((3-chlorobenzoyl)imino)benzo[d]thiazol-3(2H)-yl)propionic acid] | 101.4 | 12.9 | 134 | 95.8 | 14.5
O=C(O)Cn1c(=NC(=O)c2cccc(C(F)(F)F)c2)sc2c(F)cccc21 [Example 356, 2-(7-fluoro-2-((3-(trifluoromethyl)benzoyl)imino)benzo[d]thiazol-3(2H)-yl)acetic acid] | – | 40.9 | 1190 | – | –
CCC(C(=O)O)n1c(=NC(=O)c2cccc(Cl)c2)sc2ccc(Cl)cc21 (stereo not drawn) [Example 361, 2-(5-chloro-2-((3-chlorobenzoyl)imino)benzo[d]thiazol-3(2H)-yl)butanoic acid] | 108.4 | 142 | 581 | 104.3 | 34.6
CCC(C(=O)O)n1c(=NC(=O)c2cccc(Cl)c2)sc2c(F)c(Cl)ccc21 (stereo not drawn) [Example 386, 2-(6-chloro-2-((3-chlorobenzoyl)imino)-7-fluorobenzo[d]thiazol-3(2H)-yl)butanoic acid] | 106.3 | 8.3 | – | 103.9 | 11.2
CC(C(=O)O)n1c(=NC(=O)c2cccc(Cl)c2)sc2cc(F)c(C(F)(F)F)cc21 (stereo not drawn) [Example 388, 2-(2-((3-chlorobenzoyl)imino)-6-fluoro-5-(trifluoromethyl)benzo[d]thiazol-3(2H)-yl)propionic acid] | – | 37.4 | 368 | – | –
Cc1ccc2c(sc(=NC(=O)c3cccc(Cl)c3)n2C(C)C(=O)O)c1F (stereo not drawn) [Example 424, 2-(2-((3-chlorobenzoyl)imino)-7-fluoro-6-methylbenzo[d]thiazol-3(2H)-yl)propionic acid] | 104.6 | 78 | – | 99.9 | 15.6
CCC(C(=O)O)n1c(=NC(=O)c2cccc(F)c2)sc2cc(F)c(F)cc21 (stereo not drawn) [Example 442, 2-(5,6-difluoro-2-((3-fluorobenzoyl)imino)benzo[d]thiazol-3(2H)-yl)butanoic acid] | – | 80 | 361 | – | –
CC(C(=O)O)n1c(=NC(=O)c2cccc(C(F)(F)F)c2)sc2c(F)cc(F)cc21 (stereo not drawn) [Example 458, 2-(5,7-difluoro-2-((3-(trifluoromethyl)benzoyl)imino)benzo[d]thiazol-3(2H)-yl)propionic acid] | 100.0 | 61 | – | 96.4 | 30.8
